{"source": "patent US10878939B2", "about": "“Methods and compositions for personalized pain management” (Children's Hospital Medical Center, priority 2014, dated 2020)", "system": "children undergoing tonsillectomy", "assay": "Analgesic effectiveness outcomes by sex and morphine dose (Example 6)", "key": {"[1]": {"settings": "F, intra-op morphine >0.2 mg/kg"}, "[2]": {"settings": "F, intra-op morphine >0.1-0.2 mg/kg"}, "[3]": {"settings": "F, intra-op morphine ≤0.1 mg/kg"}, "[4]": {"settings": "M, intra-op morphine >0.2 mg/kg"}, "[5]": {"settings": "M, intra-op morphine >0.1-0.2 mg/kg"}, "[6]": {"settings": "M, intra-op morphine ≤0.1 mg/kg"}}, "data": [{"smiles": "CN1CC[C@]23c4c5ccc(O)c4O[C@H]2[C@@H](O)C=C[C@H]3[C@H]1C5", "note": "[morphine]", "values": [{"measurement": "Analgesic intervention need in PACU, number of cases", "setting": "F, All", "value": 67}, {"measurement": "Analgesic intervention need in PACU, proportion", "setting": "F, All", "value": "(31%)"}, {"measurement": "Maximum FLACC pain score, median", "setting": "F, All", "value": 2}, {"measurement": "Maximum NRS pain score, median", "setting": "F, All", "value": 6}, {"measurement": "Number of analgesic interventions, median", "setting": "F, All", "value": 1}, {"measurement": "Post-operative morphine, mean ± SD", "setting": "F, All", "value": "0.09 ± 0.05", "unit": "mg/kg"}, {"measurement": "Prolonged PACU stay due to pain, number of cases", "setting": "F, All", "value": 37}, {"measurement": "Prolonged PACU stay due to pain, proportion", "setting": "F, All", "value": "(17%)"}, {"measurement": "Analgesic intervention need in PACU, number of cases", "setting": "F, OSA No", "value": 35}, {"measurement": "Analgesic intervention need in PACU, proportion", "setting": "F, OSA No", "value": "(28%)"}, {"measurement": "Maximum FLACC pain score, median", "setting": "F, OSA No", "value": 2}, {"measurement": "Maximum NRS pain score, median", "setting": "F, OSA No", "value": 6}, {"measurement": "Number of analgesic interventions, median", "setting": "F, OSA No", "value": 1}, {"measurement": "Post-operative morphine, mean ± SD", "setting": "F, OSA No", "value": "0.08 ± 0.04", "unit": "mg/kg"}, {"measurement": "Prolonged PACU stay due to pain, number of cases", "setting": "F, OSA No", "value": 21}, {"measurement": "Prolonged PACU stay due to pain, proportion", "setting": "F, OSA No", "value": "(17%)"}, {"measurement": "Analgesic intervention need in PACU, number of cases", "setting": "F, OSA Yes", "value": 32}, {"measurement": "Analgesic intervention need in PACU, proportion", "setting": "F, OSA Yes", "value": "(34%)"}, {"measurement": "Maximum FLACC pain score, median", "setting": "F, OSA Yes", "value": 2}, {"measurement": "Maximum NRS pain score, median", "setting": "F, OSA Yes", "value": 5}, {"measurement": "Number of analgesic interventions, median", "setting": "F, OSA Yes", "value": 1}, {"measurement": "Post-operative morphine, mean ± SD", "setting": "F, OSA Yes", "value": "0.09 ± 0.06", "unit": "mg/kg"}, {"measurement": "Prolonged PACU stay due to pain, number of cases", "setting": "F, OSA Yes", "value": 16}, {"measurement": "Prolonged PACU stay due to pain, proportion", "setting": "F, OSA Yes", "value": "(17%)"}, {"measurement": "Analgesic intervention need in PACU, number of cases (%)", "setting": "[1]", "value": "22 (51)"}, {"measurement": "Maximum FLACC pain score, median (IQR)", "setting": "[1]", "value": "1 (0-5)"}, {"measurement": "Maximum NRS pain score, median (IQR)", "setting": "[1]", "value": "6 (3-9)"}, {"measurement": "Number of analgesic interventions, median (IQR)", "setting": "[1]", "value": "1 (0-1)"}, {"measurement": "Post-operative morphine, mean ± SD", "setting": "[1]", "value": "0.10 ± 0.05", "unit": "mg/Kf"}, {"measurement": "Prolonged PACU stay due to pain, number of cases (%)", "setting": "[1]", "value": "12 (28)"}, {"measurement": "Analgesic intervention need in PACU, number of cases (%)", "setting": "[2]", "value": "40 (61)"}, {"measurement": "Maximum FLACC pain score, median (IQR)", "setting": "[2]", "value": "2 (0-5)"}, {"measurement": "Maximum NRS pain score, median (IQR)", "setting": "[2]", "value": "5 (2-8)"}, {"measurement": "Number of analgesic interventions, median (IQR)", "setting": "[2]", "value": "1 (0-1)"}, {"measurement": "Post-operative morphine, mean ± SD", "setting": "[2]", "value": "0.09 ± 0.05", "unit": "mg/Kf"}, {"measurement": "Prolonged PACU stay due to pain, number of cases (%)", "setting": "[2]", "value": "22 (33)"}, {"measurement": "Analgesic intervention need in PACU, number of cases (%)", "setting": "[3]", "value": "5 (100)"}, {"measurement": "Maximum FLACC pain score, median (IQR)", "setting": "[3]", "value": "3 (3-4)"}, {"measurement": "Maximum NRS pain score, median (IQR)", "setting": "[3]", "value": "8 (6-10)"}, {"measurement": "Number of analgesic interventions, median (IQR)", "setting": "[3]", "value": "1 (1-2)"}, {"measurement": "Post-operative morphine, mean ± SD", "setting": "[3]", "value": "0.07 ± 0.03", "unit": "mg/Kf"}, {"measurement": "Prolonged PACU stay due to pain, number of cases (%)", "setting": "[3]", "value": "3 (60)"}, {"measurement": "Analgesic intervention need in PACU, number of cases", "setting": "M, All", "value": 61}, {"measurement": "Analgesic intervention need in PACU, proportion", "setting": "M, All", "value": "(28%)"}, {"measurement": "Maximum FLACC pain score, median", "setting": "M, All", "value": 2}, {"measurement": "Maximum NRS pain score, median", "setting": "M, All", "value": 5}, {"measurement": "Number of analgesic interventions, median", "setting": "M, All", "value": 1}, {"measurement": "Post-operative morphine, mean ± SD", "setting": "M, All", "value": "0.09 ± 0.05", "unit": "mg/kg"}, {"measurement": "Prolonged PACU stay due to pain, number of cases", "setting": "M, All", "value": 36}, {"measurement": "Prolonged PACU stay due to pain, proportion", "setting": "M, All", "value": "(16%)"}, {"measurement": "Analgesic intervention need in PACU, number of cases", "setting": "M, OSA No", "value": 35}, {"measurement": "Analgesic intervention need in PACU, proportion", "setting": "M, OSA No", "value": "(28%)"}, {"measurement": "Maximum FLACC pain score, median", "setting": "M, OSA No", "value": 2}, {"measurement": "Maximum NRS pain score, median", "setting": "M, OSA No", "value": 6}, {"measurement": "Number of analgesic interventions, median", "setting": "M, OSA No", "value": 1}, {"measurement": "Post-operative morphine, mean ± SD", "setting": "M, OSA No", "value": "0.09 ± 0.05", "unit": "mg/kg"}, {"measurement": "Prolonged PACU stay due to pain, number of cases", "setting": "M, OSA No", "value": 24}, {"measurement": "Prolonged PACU stay due to pain, proportion", "setting": "M, OSA No", "value": "(19%)"}, {"measurement": "Analgesic intervention need in PACU, number of cases", "setting": "M, OSA Yes", "value": 26}, {"measurement": "Analgesic intervention need in PACU, proportion", "setting": "M, OSA Yes", "value": "(27%)"}, {"measurement": "Maximum FLACC pain score, median", "setting": "M, OSA Yes", "value": 4}, {"measurement": "Maximum NRS pain score, median", "setting": "M, OSA Yes", "value": 5}, {"measurement": "Number of analgesic interventions, median", "setting": "M, OSA Yes", "value": 1}, {"measurement": "Post-operative morphine, mean ± SD", "setting": "M, OSA Yes", "value": "0.09 ± 0.05", "unit": "mg/kg"}, {"measurement": "Prolonged PACU stay due to pain, number of cases", "setting": "M, OSA Yes", "value": 12}, {"measurement": "Prolonged PACU stay due to pain, proportion", "setting": "M, OSA Yes", "value": "(13%)"}, {"measurement": "Analgesic intervention need in PACU, number of cases (%)", "setting": "[4]", "value": "20 (54)"}, {"measurement": "Maximum FLACC pain score, median (IQR)", "setting": "[4]", "value": "2 (0-5)"}, {"measurement": "Maximum NRS pain score, median (IQR)", "setting": "[4]", "value": "6 (4-7)"}, {"measurement": "Number of analgesic interventions, median (IQR)", "setting": "[4]", "value": "1 (0-1)"}, {"measurement": "Post-operative morphine, mean ± SD", "setting": "[4]", "value": "0.09 ± 0.05", "unit": "mg/Kf"}, {"measurement": "Prolonged PACU stay due to pain, number of cases (%)", "setting": "[4]", "value": "12 (32)"}, {"measurement": "Analgesic intervention need in PACU, number of cases (%)", "setting": "[5]", "value": "36 (58)"}, {"measurement": "Maximum FLACC pain score, median (IQR)", "setting": "[5]", "value": "3 (1-7)"}, {"measurement": "Maximum NRS pain score, median (IQR)", "setting": "[5]", "value": "5 (2-8)"}, {"measurement": "Number of analgesic interventions, median (IQR)", "setting": "[5]", "value": "1 (0-1)"}, {"measurement": "Post-operative morphine, mean ± SD", "setting": "[5]", "value": "0.10 ± 0.05", "unit": "mg/Kf"}, {"measurement": "Prolonged PACU stay due to pain, number of cases (%)", "setting": "[5]", "value": "22 (35)"}, {"measurement": "Analgesic intervention need in PACU, number of cases (%)", "setting": "[6]", "value": "5 (83)"}, {"measurement": "Maximum FLACC pain score, median (IQR)", "setting": "[6]", "value": "3 (1-5)"}, {"measurement": "Maximum NRS pain score, median (IQR)", "setting": "[6]", "value": "6 (5-9)"}, {"measurement": "Number of analgesic interventions, median (IQR)", "setting": "[6]", "value": "1 (1-2)"}, {"measurement": "Post-operative morphine, mean ± SD", "setting": "[6]", "value": "0.07 ± 0.04", "unit": "mg/Kf"}, {"measurement": "Prolonged PACU stay due to pain, number of cases (%)", "setting": "[6]", "value": "2 (33)"}, {"measurement": "sex-specific morphine effects on analgesic outcomes", "setting": "univariate or multivariate modeling", "value": "no evidence of sex-specific morphine effects"}]}]}
